{"source": "patent US20240100178A1", "about": "“EGFR TARGETING PEPTIDE CONJUGATE” (Chapman University, priority 2022, published 2024)", "key": {"[1]": {"assay": "Stability of peptide GE11 in human serum at 37° C. (RP-HPLC)", "assay_type": "in vitro ADME", "method": "Peptide was incubated with human serum at 37° C., and aliquots were removed at different time intervals for HPLC analysis.\nPeptides show low proteolytic stability when administered systemically and must be stabilized for clinical application. […] The three N-terminal amino acids (1Y, 2H, 3W) were cleaved sequentially by proteolysis, giving three fragments (A, B, and C, Table 2)) that appear in the HPLC chromatograms. […] Therefore, blocking the N-terminus of the peptide with a chemotherapeutic drug yields a stable conjugate."}, "[2]": {"assay": "Stability of PDoxC in mouse serum at 37° C. (RP-HPLC)", "assay_type": "in vitro ADME", "conditions": "HPLC peak AUC", "method": "(§1) FIG. 3 depicts the stability of the PDoxC in the presence of human or mouse serum at 37° C. The PDoxC was incubated with human or mouse serum and aliquots were removed at different time intervals for HPLC analysis. The AUC for PDoxC peak was used to calculate the percent intact at different time points.\n(§2) The stability of the peptide 31 PDoxC was evaluated by incubating it with human or mouse serum at 37° C. (FIG. 3). Aliquots were removed at regular intervals to analyze the PDoxC using RP-HPLC."}, "MDA-MB-231": {"tested_on": "MDA-MB-231", "assay": "Cytotoxicity MTT/MTS assay, MDA-MB-231", "assay_type": "cell-based", "conditions": "MDA-MB-231 (TNBC) cells", "excerpt": "(§3) FIG. 4A-C depicts the cytotoxicity of PDoxC, obtained by […], for three cell lines (MDA-MB-231 [FIG. 4A], MDA-MB-468 [FIG. 4B], and MCF-10A [FIG. 4C]). Cell viability is plotted against drug concentration (PDoxC or Dox) to obtain IC50 values. Each experimental point was done in duplicates or triplicates and the experiment was repeated once.\n(§4) Next, the cytotoxicity of the peptide 31 PDoxC was compared to the DOX (free drug) using MTS assay (FIG. 4A-C). Three cell lines were used, two TNBC cell lines (MDA-MB-231 and MDA-MB-468) and one non-cancerous mammary epithelial MCF-10A cell line. […] This peptide 31 PDoxC is very promising as this level of selectivity has never been observed with previously reported peptide-drug conjugates."}, "MCF-10A": {"tested_on": "MCF-10A", "assay": "Cytotoxicity MTT/MTS assay, MCF-10A", "assay_type": "cell-based", "conditions": "MCF-10A non-cancerous mammary epithelial cells; highest tested concentration 25 μM", "excerpt": "as §3, §4"}, "[3]": {"assay": "Stability of PDoxC in human serum at 37° C. (RP-HPLC)", "assay_type": "in vitro ADME", "conditions": "HPLC peak AUC", "method": "as §1, §2"}, "MDA-MB-468": {"tested_on": "MDA-MB-468", "assay": "Cytotoxicity MTT/MTS assay, MDA-MB-468", "assay_type": "cell-based", "conditions": "MDA-MB-468 (TNBC) cells", "excerpt": "as §3, §4"}, "[4]": {"tested_on": "TNBC cells (MDA-MB-468, 231, and 436)", "assay": "SPOT peptide array library screen for binding to TNBC cells versus normal breast cells", "assay_type": "cell-based", "conditions": "peptide array incubated with TNBC cells (MDA-MB-468, 231, 436) or normal breast cells (MCF-10A, 12A); relative to lead GE11", "method": "A library of 30 peptide sequences (in duplicates, total 60 peptides) was synthesized in an array format on functionalized cellulose membrane using SPOT synthesis. The peptide library was screened for identifying EGFR binding peptide in TNBC cells by incubating the library with TNBC cells (MDA-MB-468, 231, and 436) or normal breast (MCF-10A and 12A) cells."}, "[5]": {"tested_on": "noncancerous mammary epithelial cells (MCF-10A and MCF12A)", "assay": "Peptide uptake by noncancerous mammary epithelial cells", "assay_type": "cell-based"}, "EGFR in MDA-MB-231 cells": {"tested_on": "EGFR in MDA-MB-231 cells", "assay": "EGF competition assay of FITC labeled peptide uptake by flow cytometry", "assay_type": "cell-based", "excerpt": "(§5) The specific binding and uptake of peptide 22 (FITC labeled peptide) by EGFR in TNBC cells was confirmed by competition assay using flow cytometry."}, "[6]": {"tested_on": "EGFR expressing TNBC cells (MDA-MB-231 and MDA-MB-468)", "assay": "Peptide uptake by EGFR expressing TNBC cells", "assay_type": "cell-based", "excerpt": "as §5"}, "[7]": {"molecular_target": "T1, epidermal growth factor receptor (EGFR) on TNBC cells (UniProt P00533 25-1210, limits assumed)", "T1 construct": "whole, on cells; also called ErbB1", "assay": "SPOT peptide array on cellulose membrane incubated with TNBC cells (MDA-MB-468, 231, 436) or normal breast cells"}}, "note": "Where a SMILES comes first, the peptide text is derived from it. The star is where a group is joined. X1 = COc1cccc2c1C(=O)c1c(O)c3c(c(O)c1C2=O)C[C@@](O)(C(=O)CO)C[C@@H]3O[C@H]1C[C@H](NC(=O)C2CCC(CN3C(=O)CC(*)C3=O)CC2)[C@H](O)[C@H](C)O1", "data": [{"molecule": "CC[C@H](C)[C@H](NC(=O)[C@@H](NC(=O)[C@H](CC(N)=O)NC(=O)[C@H](CCC(N)=O)NC(=O)[C@@H]1CCCN1C(=O)[C@@H](NC(=O)[C@H](Cc1ccc(O)cc1)NC(=O)CNC(=O)[C@H](Cc1ccc(O)cc1)NC(=O)[C@H](Cc1c[nH]c2ccccc12)NC(=O)[C@H](Cc1c[nH]cn1)NC(=O)[C@@H](N)Cc1ccc(O)cc1)[C@@H](C)O)C(C)C)C(=O)O", "note": "[GE11]", "values": [{"measurement": "% Intact GE11", "setting": "[1]; 0 h", "result": 100, "unit": "%"}, {"measurement": "remaining at 1 h", "setting": "[1]; 1 h", "result": 49, "unit": "%"}, {"measurement": "remaining at 3 h", "setting": "[1]; 3 h", "result": 18, "unit": "%"}, {"measurement": "% Intact GE11", "setting": "[1]; 7 h", "result": 2, "unit": "%"}, {"measurement": "remaining at 7 h", "setting": "[1]; 7 h", "result": 2, "unit": "%"}]}, {"molecule": "CC[C@H](C)[C@H](NC(=O)[C@@H](NC(=O)[C@H](CCCNC(=N)N)NC(=O)[C@H](CCC(=O)O)NC(=O)[C@@H]1CCCN1C(=O)[C@@H](NC(=O)[C@H](Cc1ccc(O)cc1)NC(=O)CNC(=O)[C@H](Cc1ccc(O)cc1)NC(=O)[C@H](Cc1c[nH]c2ccccc12)NC(=O)[C@H](Cc1c[nH]cn1)NC(=O)[C@H](Cc1ccc(O)cc1)NC(=O)[C@@H](N)CSC1CC(=O)N(CC2CCC(C(=O)N[C@H]3C[C@H](O[C@H]4C[C@](O)(C(=O)CO)Cc5c(O)c6c(c(O)c54)C(=O)c4c(OC)cccc4C6=O)O[C@@H](C)[C@H]3O)CC2)C1=O)[C@@H](C)O)C(C)C)C(=O)O", "note": "(some centres unmarked) [PDoxC] (H-C(X1)YHWYGYTPERVI-OH; N-terminus and C-terminus assumed)", "values": [{"measurement": "half-life", "setting": "[2]", "result": 4, "unit": "h"}, {"measurement": "IC50", "setting": "MDA-MB-231", "result": "2.37 ± 0.55", "unit": "µM"}, {"measurement": "IC50 ± SD", "setting": "MCF-10A", "result": "no toxicity"}, {"measurement": "half-life", "setting": "[3]", "result": 12.7, "unit": "h"}, {"measurement": "IC50", "setting": "MDA-MB-468", "result": "2.75 ± 0.57", "unit": "µM"}]}, {"molecule": "YHWYGYTPKNVI [Peptide 26]", "values": [{"measurement": "specific affinity for TNBC cells", "setting": "[4]", "result": "higher specific affinity"}]}, {"molecule": "YHWYGYTPQKVI [Peptide 27]", "values": [{"measurement": "specific affinity for TNBC cells", "setting": "[4]", "result": "higher specific affinity"}]}, {"molecule": "COc1cccc2c1C(=O)c1c(O)c3c(c(O)c1C2=O)C[C@@](O)(C(=O)CO)C[C@@H]3O[C@H]1C[C@H](N)[C@H](O)[C@H](C)O1", "note": "[Free Dox, doxorubicin, reference compound]", "values": [{"measurement": "IC50", "setting": "MCF-10A", "result": 1.41, "unit": "µM"}, {"measurement": "IC50", "setting": "MDA-MB-468", "result": 0.57, "unit": "µM"}]}, {"molecule": "YHWYGYTPENVI [Peptide 22, used FITC labeled in uptake assays]", "values": [{"measurement": "uptake by noncancerous mammary epithelial cells", "setting": "[5]", "result": "minimal uptake"}, {"measurement": "specific affinity for TNBC cells", "setting": "[4]", "result": "higher specific affinity"}, {"measurement": "FITC-positive MDA-MB-231 cells", "setting": "EGFR in MDA-MB-231 cells; FITC labeled peptide alone, without excess EGF", "result": 99, "unit": "%"}, {"measurement": "FITC-positive MDA-MB-231 cells", "setting": "EGFR in MDA-MB-231 cells; FITC labeled peptide in the presence of excess EGF protein", "result": 2, "unit": "%"}, {"measurement": "uptake by EGFR expressing TNBC cells compared to the lead GE11", "setting": "[6]", "result": "47-123 fold"}]}, {"molecule": "YHWYGYTPQDVI [Peptide 23]", "values": [{"measurement": "specific affinity for TNBC cells", "setting": "[4]", "result": "higher specific affinity"}]}, {"molecule": "YHWYGYTPKNVI (made on a cellulose membrane by SPOT synthesis in the library screen)", "note": "[peptide 26]", "values": [{"measurement": "binding result", "setting": "[7]", "result": "binds"}]}, {"molecule": "YHWYGYTPQDVI (made on a cellulose membrane by SPOT synthesis in the library screen)", "note": "[peptide 23]", "values": [{"measurement": "binding result", "setting": "[7]", "result": "binds"}]}, {"molecule": "YHWYGYTPQKVI (made on a cellulose membrane by SPOT synthesis in the library screen, 12-mer derived from GE11 (N10K))", "note": "[peptide 27]", "values": [{"measurement": "binding result", "setting": "[7]", "result": "binds"}]}]}
